Results: US6083986A, “Potassium channel inhibitors” (ICAgen, Inc., priority 1997, dated 2000)

How the values were obtained:
[1] = target: T1, human Kv1.5 potassium channel (Homo sapiens, UniProt P22460); experiment: Whole cell patch clamp, inhibition of Kv1.5 current in CHO cells; type: cell-based; conditions: for IC50: Kv1.5, whole cell patch clamp, approx. values, read-out: 50% Channel Inhibition (IC50)
T1 construct: Error-free parts of these clones were then ligated together to form a complete cDNA construct; expressed in transfected cells
T1 sequence (P22460 whole entry): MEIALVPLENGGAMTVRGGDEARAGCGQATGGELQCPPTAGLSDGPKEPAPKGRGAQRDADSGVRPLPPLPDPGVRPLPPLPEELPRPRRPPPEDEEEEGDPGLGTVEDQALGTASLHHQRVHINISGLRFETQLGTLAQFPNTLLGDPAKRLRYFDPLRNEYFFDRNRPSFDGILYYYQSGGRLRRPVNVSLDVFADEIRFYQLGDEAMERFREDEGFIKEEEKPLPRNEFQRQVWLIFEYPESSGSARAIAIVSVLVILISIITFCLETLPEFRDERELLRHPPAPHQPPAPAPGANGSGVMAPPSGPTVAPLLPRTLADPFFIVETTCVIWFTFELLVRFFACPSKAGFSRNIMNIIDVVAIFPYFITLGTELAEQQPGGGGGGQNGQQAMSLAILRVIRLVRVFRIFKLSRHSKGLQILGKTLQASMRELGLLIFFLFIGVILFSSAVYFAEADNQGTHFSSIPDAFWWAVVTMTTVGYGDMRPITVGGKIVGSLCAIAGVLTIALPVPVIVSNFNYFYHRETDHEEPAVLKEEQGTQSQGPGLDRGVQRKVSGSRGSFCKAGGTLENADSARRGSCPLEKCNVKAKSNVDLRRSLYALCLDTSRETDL
Experimental: (§1) 4. Electrophysiological Studies
(§2) Electrophysiological recordings of native channels in cells and cell lines, cloned and expressed channels in cells (e.g., CHO cells) as well as isolated cardiac myocytes were performed using the whole cell configuration of the patch clamp technique (Hamill et al., Pflugers Archiv 391:85, 1981). Cell lines were prepared as described above (cloning, etc.). Rat and human cardiac myocytes were isolated using the methods described in Castle and Slawsky, J. Pharmacol. Exp. Ther. 264:1450, 1993 and Wang et al., Circ. Res., 73:1061, 1993, respectively. Cells were plated on glass coverslips at a density of 2×10^4 cells/coverslip and used within 24-48 hours for cultured cell lines and within 6 hours for isolated cardiac myocytes. The coverslips were placed in a small chamber (volume ~200 μl) on the mechanical stage of an inverted microscope and perfused (2 ml/min) with extracellular recording solution. Drug application was achieved via a series of narrow-bore glass capillary tubes (inner diameter ~100 μm) positioned approximately 200 μm from the cell. Application of voltage-clamp pulses, data acquisition and the analysis were controlled by a 75 MHz Pentium computer using pCLAMP 6.0 software (Axon Instruments Inc. Foster City, Calif.).
500 ms voltage clamp steps from -80 mV to +60 mV were applied to individual cells every 20 seconds for Kv1.5 and every 60 seconds for Kv1.3.

human T lymphocytes = experiment: T-lymphocyte proliferation assay (PHA-stimulated 3H-thymidine incorporation); type: cell-based; conditions: compared to PHA-only controls; 10 μM compound 4, 1 nM margatoxin, 50 nM charybdotoxin; PHA 1.25 or 2.5 μg/ml
Experimental: Lymphocyte Proliferation Studies
(§4) A T-lymphocyte proliferation assay was performed using human peripheral T-lymphocytes isolated by centrifugation on lymphocyte separation medium (Organon Teknika) followed by adherence of non-T cells on nylon wool. […] 100 μl of cells/well was dispensed into a 96-well plate. Cells were stimulated with phytohemoagglutinin (1.25 or 2.5 μg/ml final concentration) in the presence or absence of various antagonists for 3 days. On the fourth day, cells were pulsed with [^3 ]thymidine for an additional 18 hours and harvested on glass fiber filtermats with extensive washing. Mats were counted in a Wallac Microbeta liquid scintillation counter using melt-on scintillant. Additional wells were counted at the end of the 18 hour period to determine if the drug treatments caused cellular toxicity.

[2] = target: T2, human Kv1.3 potassium channel (Homo sapiens, UniProt P22001); experiment: 86Rubidium efflux from CHO cell monolayers expressing Kv1.3; type: cell-based; conditions: for inhibition of 60 mM KCl evoked increase in 86Rb efflux rate (Kv1.3): preexposure to 5 nM margatoxin or 10 μM compound 4, 15 minute period, n=4
T2 sequence (P22001 whole entry): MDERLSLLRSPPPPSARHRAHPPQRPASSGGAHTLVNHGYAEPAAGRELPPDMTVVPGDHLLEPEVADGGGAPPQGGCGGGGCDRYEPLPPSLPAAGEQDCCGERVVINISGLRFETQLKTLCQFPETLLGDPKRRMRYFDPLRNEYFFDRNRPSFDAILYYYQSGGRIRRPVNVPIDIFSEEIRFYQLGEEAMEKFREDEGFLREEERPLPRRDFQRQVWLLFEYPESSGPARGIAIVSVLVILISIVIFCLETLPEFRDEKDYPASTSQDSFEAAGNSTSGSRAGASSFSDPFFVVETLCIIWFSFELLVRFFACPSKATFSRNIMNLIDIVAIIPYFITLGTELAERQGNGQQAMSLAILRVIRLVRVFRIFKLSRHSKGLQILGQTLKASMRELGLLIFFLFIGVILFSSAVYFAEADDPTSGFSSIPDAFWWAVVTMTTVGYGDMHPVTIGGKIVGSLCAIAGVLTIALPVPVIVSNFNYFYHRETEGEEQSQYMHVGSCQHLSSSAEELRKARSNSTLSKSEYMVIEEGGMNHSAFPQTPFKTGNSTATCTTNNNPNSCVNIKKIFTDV
Experimental: Stable clones were tested for voltage-gated potassium channel expression using a ^86 rubidium (^86 Rb) ion flux assay (see below for methodology).
(§5) 2. ^86 Rubidium Efflux From Cell Monolayers
CHO cells stably transfected with either human Kv1.5 or Kv1.3 as well as nontransfected cells were grown to approximately 90% confluence in 24 well tissue culture plates. Tissue culture growth medium was then removed and replaced with 1 ml of Iscoves modified DMEM containing ^86 Rb at a concentration of 1 μCi/ml and incubated for three hours at 37° C. to permit intracellular uptake of the isotope. At the end of the incubation period, the ^86 Rb solution was aspirated and the cells washed three times with Earls Balanced Salt Solution (EBSS). The cells were then incubated for 15 minutes at room temperature in 0.6 ml/well of EBSS or EBSS containing the compounds to be tested. At the end of this period, a 0.3 ml sample was taken for analysis to determine basal efflux of ^86 Rb. To each well was then added 0.3 ml of a modified high KCl EBSS, containing 125 mM KCl (NaCl replaced by KCl; final KCl concentration in each well was 65 nM) and the compounds to be tested. The high KCl concentration was utilized to depolarize the cells to membrane potentials that would activate Kv1.3 and Kv1.5 channels. After a 15 minute incubation, another 0.3 ml sample was taken for analysis. Finally 0.3 ml of 0.2% sodium dodecyl sulfate in EBSS was added to each well to lyse the cells. Of this lysate 0.3 ml was taken for analysis to determine final cell content of ^86 Rb. Samples were counted in a Wallac Microbeta Liquid Scintillation counter by Cerenkov emission. Efflux was expressed as a percentage of the initial cell content of ^86 Rb.
(§6) Values are means ±s.e. (n=4) of the amount of ^86 Rb released in a 15 minute period and are expressed as a percentage of the initial cell content.

human T-lymphocytes = experiment: Toxicity to human T-lymphocytes (cell viability); type: cell-based; conditions: 10 μM, 90 hours of exposure
Experimental: as §4

[3] = target: T2, human Kv1.3 potassium channel; experiment: Whole cell patch clamp, inhibition of Kv1.3 current in CHO cells; type: cell-based; conditions: 10 μM, 5 min preincubation; steps -80 mV to +60 mV every 60 seconds
Experimental: as §1
as §2, with “Calif.). […]” for “Calif.).”

[4] = system: IKur in human atrial myocytes; experiment: Inhibition of IKur currents in isolated human atrial myocytes; type: cell-based
Experimental: as §1, §2

[5] = target: T1, human Kv1.5 potassium channel; experiment: 86Rubidium efflux from CHO cell monolayers expressing Kv1.5; type: cell-based; conditions: 10 μM compound 4; 15 minute period; n=4
Experimental: as §5
CHO cells stably transfected with either human Kv1.5 or Kv1.3 as well as nontransfected cells were grown to approximately 90% confluence in 24 well tissue culture plates. Tissue culture growth medium was then removed and replaced with 1 ml of Iscoves modified DMEM containing ^86 Rb at a concentration of 1 μCi/ml and incubated for three hours at 37° C. to permit intracellular uptake of the isotope. At the end of the incubation period, the ^86 Rb solution was aspirated and the cells washed three times with Earls Balanced Salt Solution (EBSS). The cells were then incubated for 15 minutes at room temperature in 0.6 ml/well of EBSS or EBSS containing the compounds to be tested. At the end of this period, a 0.3 ml sample was taken for analysis to determine basal efflux of ^86 Rb. To each well was then added 0.3 ml of a modified high KCl EBSS, containing 125 mM KCl (NaCl replaced by KCl; final KCl concentration in each well was 65 nM) and the compounds to be tested. […] Samples were counted in a Wallac Microbeta Liquid Scintillation counter by Cerenkov emission. Efflux was expressed as a percentage of the initial cell content of ^86 Rb.
as §6

nontransfected CHO cells = experiment: Fluorescence measurement of cell membrane potential (DiBac4(3)) in non-transfected CHO cells; type: cell-based, Chinese hamster; conditions: 10 μM; CHO-WT
human atrial myocytes = experiment: Action potential prolongation in isolated human atrial myocytes; type: cell-based
Experimental: as §1, §2
(§3) A functional consequence of potassium channel inhibition in the heart is a prolongation of the action potential duration. […]

rat cardiac myocytes = experiment: Action potential prolongation in rat cardiac myocytes; type: cell-based; conditions: 1 μM, 2 min application
Experimental: as §1, §2, §3

[6] = target: T2, human Kv1.3 potassium channel; experiment: Fluorescence measurement of cell membrane potential (DiBac4(3)) in CHO cells expressing Kv1.3; type: cell-based; conditions: 10 μM; compared with margatoxin; CHO cells expressing human Kv1.3
Experimental: Fluorescence Measurement of Cell Membrane Potential
CHO cells stably transfected with genes encoding human voltage gated potassium channels were grown to 80-90% confluency in 96 well tissue culture plates. On the experimental day, they were repeatedly contacted with a modified EBSS (116 mM NaCl, 5.4 mM KCl, 1.8 mM CaCl2, 0.8 mM MgCl2, 20 mM HEPES, 5 nM glucose; pH 7.4, 300 mOsm) plus 5 μM of the voltage-sensitive oxonol dye, bis-(1,3-dibutylbarbituric acid)trimethine oxonol (DiBac4 (3)). Dibac4 (3) binds to intracellular proteins in a membrane potential-dependent process, changing the effective concentration of fluorescing molecules. […] The cells in each well were then incubated in EBSS+5 μM DiBac4 (3) at 37° C. for 30 minutes. The 96 well plate was then placed in a 35° C. temperature controlled chamber within a laser based fluorescence imaging plate reader (NovelTech Inc.). Data were collected every 60 seconds for periods ranging from 20 to 40 min. To permit comparative quantification of the magnitude of drug induced changes in the fluorescence signal, changes were compared to the addition of EBSS+5 μM DiBac4 (3) without drug and EBSS+5 μM DiBac4 (3)+30 mM KCl without drug, and expressed as a percentage of the increase in fluorescence induced by exposure of the cells to 30 mM KCl. […]

CCc1ccc(S(=O)(=O)NC2c3cc(NC(=O)c4ccccc4F)ccc3CC2O)cc1 (stereo not drawn) [Compound 17]
IC50 [1]: > 1000 nM

CCc1ccc(S(=O)(=O)NC2c3cc(NC(=O)c4cccc(C)c4)ccc3CC2O)cc1 (stereo not drawn) [Compound 2]
IC50 [1]: ~1000 nM

CCc1ccc(S(=O)(=O)NC2c3cc(NC(=O)C4CC5CCC4CC5)ccc3CC2O)cc1 (stereo not drawn) [Compound 13]
IC50 [1]: ~1000 nM

CCCCCOc1ccc(C(=O)Nc2ccc3c(c2)C(NS(=O)(=O)c2ccc(CC)cc2)C(O)C3)cc1 (stereo not drawn) [Compound 15]
IC50 [1]: ~1000 nM

COc1ccc(S(=O)(=O)NC2c3cc(NC(=O)c4cccc(OC)c4)ccc3CC2O)cc1 (stereo not drawn) [Compound 10]
IC50 [1]: > 1000 nM

CCc1ccc(S(=O)(=O)NC2c3cc(NC(=O)CCC4CCCC4)ccc3CC2O)cc1 (stereo not drawn) [Compound 11]
IC50 [1]: ~1000 nM

COc1cccc(C(=O)Nc2ccc3c(c2)C(NS(=O)(=O)c2ccccc2)C(O)C3)c1 (stereo not drawn) [Compound 12]
IC50 [1]: > 1000 nM

charybdotoxin
inhibition of lymphocyte proliferation (human T lymphocytes): inhibited lymphocyte proliferation to a similar extent

CCc1ccc(S(=O)(=O)N[C@H]2c3cc(NC(=O)c4cccc(OC)c4)ccc3C[C@@H]2O)cc1 (relative stereo) [Compound 4, 1-(p-ethylphenyl)sulfimide-2-hydroxy-6-(m-methoxy)benzamido-indane]
inhibition of 60 mM KCl evoked increase in 86Rb efflux rate (Kv1.3) [2]: completely abolished | inhibition of potassium currents (Kv1.5) ([1]; 10 μM, 5 min preincubation, steps -80 mV to +60 mV every 20 seconds): inhibition of potassium currents | IC50 [1]: ~100 nM | cell viability / toxicity to human T-lymphocytes (human T-lymphocytes): no decrease in cell viability | inhibition of potassium currents (Kv1.3) [3]: inhibition of potassium currents | inhibition at 1 µM [4]: > 50% | inhibition of KCl evoked increase in 86Rb efflux rate (Kv1.5) [5]: completely inhibited | inhibition of lymphocyte proliferation (human T lymphocytes): inhibited lymphocyte proliferation to a similar extent | compound-induced depolarization (nontransfected cells) (nontransfected CHO cells): absent | activation at 1 µM (human atrial myocytes): > 50% | prolongation of the action potential (rat) (rat cardiac myocytes): prolongs the action potential | cell membrane depolarization (Kv1.3) [6]: produced a depolarization similar in magnitude to that induced by the Kv1.3-specific blocking toxin margatoxin

margatoxin (TIINVKCTSPKQCLPPCKAQFGQSAGAKCMNGKCKCYPH; UniProt P40755 1-39, looked up)
inhibition of KCl-stimulated 86Rb efflux ([2]; margatoxin present, four positive Kv1.3 clones): approximately 95% | inhibition of 60 mM KCl evoked increase in 86Rb efflux rate (Kv1.3) [2]: completely abolished | inhibition of lymphocyte proliferation (human T lymphocytes): inhibited lymphocyte proliferation to a similar extent

COc1cccc(C(=O)Nc2ccc3c(c2)C(NS(=O)(=O)c2ccc4ccccc4c2)C(O)C3)c1 (stereo not drawn) [Compound 16]
IC50 [1]: ~1000 nM
